Reference: PubChem BioAssay (NCI)
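Growth conditions: 96-well plates. Treatment: test compound, 48 hours, 5 concentrations. Analysis: linear interpolation between bracketing concentrations; unreached endpoints set to highest concentration. TGI: total growth inhibition.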

Assays:
Experiment in all cases: NCI tumour cell line growth inhibition, 48 h
KM20L2 colon = system: KM20L2 colon
DLD-1 colon = system: DLD-1 colon
DMS 273 small cell lung = system: DMS 273 small cell lung
SNB-78 CNS = system: SNB-78 CNS
HOP-18 NSCLC = system: HOP-18 NSCLC
M19-MEL melanoma = system: M19-MEL melanoma
XF 498 CNS = system: XF 498 CNS
LXFL 529 NSCLC = system: LXFL 529 NSCLC
DMS 114 small cell lung = system: DMS 114 small cell lung
RXF-631 renal = system: RXF-631 renal

Compound | TGI (KM20L2 colon) [µM] | TGI (DLD-1 colon) [µM] | TGI (DMS 273 small cell lung) [µM] | TGI (SNB-78 CNS) [µM] | TGI (HOP-18 NSCLC) [µM] | TGI (M19-MEL melanoma) [µM] | TGI (XF 498 CNS) [µM] | TGI (LXFL 529 NSCLC) [µM] | TGI (DMS 114 small cell lung) [µM] | TGI (RXF-631 renal) [µM]
CCCN1CN(C(C(=O)N[C@@H]2C(=O)N3C2SC(C)(C)C3C(=O)O)c2ccccc2)CSC1=S (some centres undefined) | > 100 | > 100 | > 100 | > 100 | > 100 | > 100 | > 100 | > 100 | 94.1 | 
O=C1CCCC2=C(N1)C(=O)C=CC2=O | > 100 | > 100 | > 100 | > 100 | > 100 | > 100 | > 100 | > 100 | > 56.5 | > 100
O=C(NCc1ccccc1)c1cc2cc(O)c(O)cc2cn1 | 84.6 | > 100 | 23.2 | > 100 | 41.4 | 77.3 | 90.3 | > 100 | 24 | 
CCOc1ccccc1N=Nc1c(-c2ccccc2)nn(C(=O)CC(=O)Nc2cccc(Cl)c2)c1-c1ccccc1 | > 100 | > 100 | > 100 | > 100 | > 100 | > 100 | > 100 | > 100 | > 100 | 
CC(=O)Nc1ccc(C(=O)NN2C(=O)C(Cl)C2c2cc(Br)ccc2O)cc1 (centres undefined) |  | > 100 |  |  | 62 | 33.7 |  | > 100 |  | 
CCOC(=O)C(Cc1ccccc1)NC(=O)c1ccc(N=NN(C)C)cc1 (centres undefined) |  | > 100 | > 100 |  |  | > 100 |  | > 100 | > 100 | 
C=CCNC(=S)N1c2ccccc2NC(=O)CC1C (centres undefined) | > 100 |  | > 100 | > 100 |  | > 100 | > 100 | > 100 | > 100 | 
COc1ccc(CNC2=C(NC(C)=O)C(=O)c3ccccc3C2=O)cc1 | > 50 | 22.8 | > 50 | 40.6 |  | 17.4 |  | 14.9 |  | 
